Data set [1] has as its system multi lamellar vesicles of soybean phosphatidylcholine (PCh). The data set can be described thus: Inhibition of peroxidic oxidation of lipids (POL): TBA-sensitive products in soybean phosphatidylcholine liposomes. The format is biochemical. The protocol: The antioxidative activity of preparations with varying combinations of the ingredients was evaluated on the basis of their effect on the increase of concentration of POL products (malondialdehyde or products that are sentitive to thiobarbituric acid (TBA)) in an aqueous dispersion of soybean phospholipids. For this evaluation the concentration in the soybean phospatidylcholine liposomes was measured at an initial moment and after incubation at 37° C. for 60 min. in the absence and presence of POL starters, namely, Fe^3+ ions and ascorbate.
Originally a 2.0 percent aqueous dispersion of phospholipides with antioxidants, where wheat germ oil is also present, contains an insignificant amount of products sensitive to TBA (0.8 nmol/ml). This amount rises to 2-2.5 times as much as a result of heating for 60 min. When starters are added to the original system the concentration of POL products rises to 40 nmol/ml during incubation at 37° C. for 60 min., i.e., will be […] as high.
Increase of the amount of products sensitive to TBA [nmol/ml] in multi lamellar vesicles of soybean phosphatidylcholine (PCh) containing N-acetyl-L-cysteine as a result of oxidation, the latter caused by introduction of an oxidation starter Pe3+/ascorbat (60 min, 37° C.) into the system, in the absence and presence of various antioxidants (AO).

For data set [2] the following is noted: in tablets; cited from earlier work.

Here are results for three compounds from patent publication US20100119589A1, “LIPOSOMAL COMPOSITION OF ANTIOXIDANTS FOR INHALATIONS CARRIED OUT DURING LUNG AND UPPER RESPIRATORY TRACT DISEASES” (OTKRYTOE AKTSIONERNOE OBSCHESTVO ZAVOD EKOLOGICHES, priority 2006, published 2010).

For `O=C1c2c(O)cc(O)cc2O[C@H](c2ccc(O)c(O)c2)[C@H]1O` [dihydroquercetin], the minimum effective concentration in data set [1] (POL inhibition) was 0.03 mg/mL. In data set [1] (wheat germ oil added to dihydroquercetin), the “antioxidant activity when wheat germ oil was added” value is “decreased”.
With `O=C1O[C@H]([C@@H](O)CO)C(O)=C1O` [ascorbic acid], in data set [1] (POL inhibition, ascorbic acid alone), the minimum inhibiting concentration turned out to be 2500 µg/mL. Further, the “decrease of the concentration of the acid when wheat germ oil is simultaneously present” value in data set [1] (wheat germ oil and ascorbic acid simultaneously present) was found to be 5 times.
By bioavailability is commonly meant the share of a dose that reaches the circulation, judged against a reference dose that is usually intravenous. For vitamin E, the bioavailability in data set [2] was 3%.
